What was measured:
[1] = reversed-phase LC retention time (C18, 15 min MeOH gradient); higher = more hydrophobic / later elution
[2] = collision cross section (TIMS, N2 drift gas) of the primary ion; higher = larger gas-phase ion size
[3] = ionization mode: ESI+, ion species: [M+H]+
[4] = ionization mode: ESI-, ion species: [M-H]-
[5] = ionization mode: ESI+, ion species: [M]+

Row | Compound | reversed-phase LC retention time [1, 3] | collision cross section [2, 3] | reversed-phase LC retention time [1, 4] | collision cross section [2, 4] | reversed-phase LC retention time [1, 5] | collision cross section [2, 5]
1 | CC(C)c1ccc(NC(=O)N(C)C)cc1 [Isoproturon] | 13 min | 151.88 Å² | – | – | – | –
2 | CC(C)C1C2CCC1c1c(NC(=O)c3cn(C)nc3C(F)F)cccc12 (stereo unspecified) [Isopyrazam] | 16.2 min | 185.35 Å² | 16.6 min | 191.1 Å² | – | –
3 | CCC(C)(CC)c1cc(NC(=O)c2c(OC)cccc2OC)on1 [Isoxaben] | 14.3 min | 186.76 Å² | 14.7 min | 186.45 Å² | – | –
4 | CC[C@H](C)[C@H]1O[C@]2(CC[C@@H]1C)C[C@@H]1C[C@@H](C/C=C(\C)[C@@H](O[C@H]3C[C@H](OC)[C@@H](O[C@H]4C[C@H](OC)[C@@H](O)[C@H](C)O4)[C@H](C)O3)[C@@H](C)/C=C/C=C3\CO[C@@H]4[C@H](O)C(C)=C[C@@H](C(=O)O1)[C@]34O)O2 [Ivermectin B1a] | – | – | 19.5 min | 292.22 Å² | – | –
5 | CNC1(c2ccccc2Cl)CCCCC1=O (stereo unspecified) [Ketamine] | 8.79 min | 149.17 Å² | – | – | – | –
6 | CC(=O)N1CCN(c2ccc(OC[C@H]3CO[C@](Cn4ccnc4)(c4ccc(Cl)cc4Cl)O3)cc2)CC1 [Ketoconazole] | 13.2 min | 216.99 Å² | – | – | – | –
7 | CC(C(=O)O)c1cccc(C(=O)c2ccccc2)c1 (stereo unspecified) [Ketoprofen] | 13.5 min | 158.88 Å² | – | – | – | –
8 | CO/N=C(\C(=O)OC)c1ccccc1COc1ccccc1C [Kresoxim-methyl] | 15.4 min | 167.17 Å² | – | – | – | –
9 | N[C@@H](Cc1cc(I)c(Oc2cc(I)c(O)c(I)c2)c(I)c1)C(=O)O [L-Thyroxine] | 14 min | 217.22 Å² | 13.4 min | 208.7 Å² | – | –
10 | CC(CCc1ccccc1)NCC(O)c1ccc(O)c(C(N)=O)c1 (stereo unspecified) [Labetalol] | 10.5 min | 176.34 Å² | – | – | – | –
11 | CCCCCCCCCCCC(=O)NCCC[N+](C)(C)CC(=O)O [Lauramidopropylbetaine] | – | – | – | – | 15.9 min | 200.11 Å²
12 | O=c1[nH]c2c(c(=O)n1C1CCCCC1)CCC2 [Lenacil] | 12.8 min | 157.13 Å² | – | – | – | –
13 | CON(C)C(=O)Nc1ccc(Cl)c(Cl)c1 [Linuron] | 13.7 min | 152.6 Å² | 14 min | 149.38 Å² | – | –
14 | O=C1Nc2ccc(Cl)cc2C(c2ccccc2Cl)=NC1O (stereo unspecified) [Lorazepam] | 13.2 min | 168.84 Å² | 13.5 min | 167.96 Å² | – | –
15 | O=C1CCCC2C3CC(CN12)C1CCCCN1C3 (stereo unspecified) [Lupanine] | 5.52 min | 154.3 Å² | – | – | – | –
16 | C#CCOc1ccc(CCNC(=O)C(OCC#C)c2ccc(Cl)cc2)cc1OC (stereo unspecified) [Mandipropamid] | 14.2 min | 194.91 Å² | 14.6 min | 195.62 Å² | – | –
17 | CC#Cc1cc(C)nc(Nc2ccccc2)n1 [Mepanipyrim] | 14.6 min | 152.51 Å² | – | – | – | –
18 | C[N+]1(C)CCCCC1 [Mepiquat] | – | – | – | – | 1.01 min | 118.75 Å²
19 | COCC(=O)N(c1c(C)cccc1C)C(C)C(=O)OC (stereo unspecified) [Metalaxyl] | 12.7 min | 160.45 Å² | – | – | – | –
20 | Cc1nnc(-c2ccccc2)c(=O)n1N [Metamitron] | 8.87 min | 143.85 Å² | – | – | – | –

Further lines, with some results ahead:

Row | reversed-phase LC retention time [1, 3] | collision cross section [2, 3] | reversed-phase LC retention time [1, 4] | collision cross section [2, 4] | Compound | reversed-phase LC retention time [1, 5] | collision cross section [2, 5]
21 | 9.33 min | 153.91 Å² | – | – | Nc1nnc(-c2cccc(Cl)c2Cl)c(N)n1 [Lamotrigine] | – | –
22 | 16.6 min | 178.97 Å² | – | – | CCCCCCCCCCCC(=O)NCC(C)O (stereo unspecified) [Lauric isopropanolamide] | – | –
23 | 16.4 min | 185.96 Å² | – | – | CCCCCCCCCCCC(=O)N(CCO)CCO [Lauryl diethanolamide] | – | –
24 | 8.29 min | 156.14 Å² | – | – | CCN(CC)CC(=O)Nc1c(C)cccc1C [Lidocaine] | – | –
25 | 7.84 min | 202.11 Å² | 13.2 min | 197.99 Å² | CCC[C@@H]1C[C@@H](C(=O)N[C@@H]([C@H]2O[C@H](SC)[C@H](O)[C@@H](O)[C@H]2O)[C@@H](C)O)N(C)C1 [Lincomycin] | – | –
26 | 10.3 min | 162.42 Å² | – | – | C[C@@H](O)CCCCn1c(=O)c2c(ncn2C)n(C)c1=O [Lisofylline] | – | –
27 | 13.6 min | 221.69 Å² | – | – | CN(C)C(=O)C(CCN1CCC(O)(c2ccc(Cl)cc2)CC1)(c1ccccc1)c1ccccc1 [Loperamide] | – | –
28 | 13.3 min | 201.04 Å² | 13 min | 204 Å² | CCCCc1nc(Cl)c(CO)n1Cc1ccc(-c2ccccc2-c2nn[nH]n2)cc1 [Losartan] | – | –
29 | 11.4 min | 191.29 Å² | 11.6 min | 176.96 Å² | COc1cc(C[C@H]2COC(=O)[C@@H]2Cc2ccc(O)c(OC)c2)ccc1O [Matairesinol] | – | –
30 | 12.4 min | 175.29 Å² | 13 min | 173.87 Å² | COC(=O)Nc1nc2ccc(C(=O)c3ccccc3)cc2[nH]1 [Mebendazole] | – | –
31 | 11.9 min | 202.99 Å² | – | – | CCN(CCCCOC(=O)c1ccc(OC)c(OC)c1)C(C)Cc1ccc(OC)cc1 (stereo unspecified) [Mebeverine] | – | –
32 | 15.1 min | 187.34 Å² | 15.6 min | 188.11 Å² | CC(=O)[C@@]1(O)CC[C@H]2[C@@H]3C[C@H](C)C4=CC(=O)CC[C@]4(C)[C@H]3CC[C@@]21C [Medroxyprogesterone] | – | –
33 | 15.4 min | 199.59 Å² | – | – | CC(=O)O[C@]1(C(C)=O)CC[C@H]2[C@@H]3C[C@H](C)C4=CC(=O)CC[C@]4(C)[C@H]3CC[C@@]21C [Medroxyprogesteroneacetate] | – | –
34 | 16.3 min | 154.45 Å² | 13.6 min | 159.71 Å² | Cc1cccc(Nc2ccccc2C(=O)O)c1C [Mefenamic acid] | – | –
35 | 15.2 min | 198.3 Å² | – | – | CC(=O)O[C@]1(C(C)=O)CC[C@H]2[C@@H]3C=C(C)C4=CC(=O)CC[C@]4(C)[C@H]3CC[C@@]21C [Megestrol-17-acetate] | – | –
36 | 9.66 min | 153.65 Å² | 9.81 min | 154.96 Å² | COc1ccc2[nH]cc(CCNC(C)=O)c2c1 [Melatonin] | – | –
37 | 9.83 min | 163.5 Å² | – | – | CC1CCN(CCCC(=O)c2ccc(F)cc2)CC1 [Melperon] | – | –
38 | 11.7 min | 144.78 Å² | – | – | CC12CC3CC(C)(C1)CC(N)(C3)C2 [Memantine] | – | –
39 | 12.7 min | 201.99 Å² | 9.27 min | 206.67 Å² | COC(=O)c1ccc(CNS(C)(=O)=O)cc1S(=O)(=O)NC(=O)Nc1nc(OC)cc(OC)n1 [Mesosulfuron-methyl] | – | –
40 | 16.8 min | 213.54 Å² | 17.3 min | 221.65 Å² | N#Cc1ccc(C/C(=N\NC(=O)Nc2ccc(OC(F)(F)F)cc2)c2cccc(C(F)(F)F)c2)cc1 [Metaflumizone] | – | –
41 | 8.87 min | 139.91 Å² | 6.92 min | 137.07 Å² | Cc1nc(=O)c(-c2ccccc2)n[nH]1 [Metamitron-desamino] | – | –
42 | 8.13 min | 160.33 Å² | – | – | Cc1cccc(C(=O)O)c1N(Cn1cccn1)C(=O)C(=O)O [Metazachlor BH479-12] | – | –
43 | 9.7 min | 175.08 Å² | 8.94 min | 178.82 Å² | Cc1cccc(C)c1N(Cn1cccn1)C(=O)CS(=O)CC(=O)O (stereo unspecified) [Metazachlor BH 479-9] | – | –
44 | 10.3 min | 163.01 Å² | – | – | Cc1cccc(C)c1N(Cn1cccn1)C(=O)CS(C)=O (stereo unspecified) [Metazachlor BH 479-11] | – | –
45 | 9.52 min | 168.61 Å² | 9.35 min | 168.78 Å² | Cc1cccc(C)c1N(Cn1cccn1)C(=O)CS(=O)(=O)O [Metazachlor ESA] | – | –
